Test results reported in patent US9315543B2, “Tyrosine based linkers for the releasable connection of peptides” (Bayer Intellectual Property GmbH, priority 2011, dated 2016).

Test: Cleavage kinetics (stability) of tyrosine based linker derivatives in buffer at pH 4 and pH 7.4, HPLC
Assay type: physicochemical
Settings: room temperature; for % cleaved pH 4, 0 h / % cleaved pH 4, 24 h: pH 4 solution/acetonitrile; for % cleaved pH 4, 0 h / % cleaved pH 4, 24 h / % cleaved pH 7.4, 0 h / % cleaved pH 7.4, 6 h / % cleaved pH 7.4, 24 h: HPLC peak area; for % cleaved pH 7.4, 0 h / % cleaved pH 7.4, 6 h / % cleaved pH 7.4, 24 h: pH 7.4 buffer/acetonitrile; for cleavage kinetic (in words): summary of Table 1, pH 4 and pH 7.4, up to 24 h
Text: To illustrate the different kinetics of different linkers, simple derivatives of the tyrosine based molecule were synthesized and the cleavage at different time points in buffer at pH 4 and pH 7.4 were monitored. Based on the exact composition of the tyrosine based linker structure the formation of the cyclic urea with concomittant release of the free tyrosine OH group has different cleavage kinetics. These can be easily measured in vitro and used as predictors for the in vivo kinetics.
For the kinetic studies with regard to the stability of the different linkers 0.3 mg of the dry test compound are dissolved in 0.5 ml acetonitrile. For a better dilution the sample is sonified for about 10 seconds. Then 1.0 ml of the buffer solutions are added and the samples are sonified again.
Chemical composition of the solution/buffer which are used: • pH 4: 1 liter of deionized water was adjusted to pH 4 with 1N hydrochloric acid • pH 7.4: 90 g sodium chloride, 13.61 g potassium dihydrogene phosphate and 83.35 g 1 M sodium hydroxide solution were dissolved in 1 liter of deionized water. This solution was diluted with water at the rate of 1:10.
The test compound concentration is analysed by HPLC every hour during 24 hours at room temperature. The quantity of the test compound is determined by the peak areas.
HPLC method: Agilent 1100 with DAD (G1315B), binary pump (g1312A), autosampler (G1329A), column thermostat (G1330B), Column: Kromasil 100 C18/250 mm×4 mm/5 μm, Column temperature: 30° C., Eluent A: water+5 ml perchloric acid/1, Eluent B: acetonitrile, Gradient: 0-1.0 min 90% A, 10% B; 1.0-20.0 min 10% A, 90% B; 20.0-21.0 min 10% A, 90% B; 21.0-23.0 min 90% A, 10% B; 23.0-25.0 min 90% A, 10% B; Flow rate: 1.5 ml/min, Detection: 210 nm, Injection volume: 10 μl.

Structure (SMILES)	% cleaved pH 4, 0 h [%]	% cleaved pH 4, 24 h [%]	% cleaved pH 7.4, 0 h [%]	% cleaved pH 7.4, 6 h [%]	% cleaved pH 7.4, 24 h [%]	cleavage kinetic (in words)
NC(=O)[C@H](CSC1CC(=O)N(Cc2ccccc2)C1=O)NC(=O)[C@@H](N)CCNC(=O)Oc1ccc(C[C@H](N)C(=O)Nc2ccccc2)cc1 (stereo partly drawn) [Example 1C, O-{[(3S)-3-Amino-4-({(2R)-1-amino-3-[(1-benzyl-2,5-dioxopyrrolidin-3-yl)sulfanyl]-1-oxopropan-2-yl}amino)-4-oxobutyl]carbamoyl}-N-phenyl-L-tyrosinamide]	0	1	0	7	21	–
NC(=O)[C@H](CSC1CC(=O)N(Cc2ccccc2)C1=O)NC(=O)[C@@H](N)CCCNC(=O)Oc1ccc(C[C@H](N)C(=O)Nc2ccccc2)cc1 (stereo partly shown) [Example 3C]	0	0	0	2	11	cleaved slowly
NCCC[C@H](NC(=O)Oc1ccc(C[C@H](N)C(=O)Nc2ccccc2)cc1)C(=O)N[C@@H](CSC1CC(=O)N(Cc2ccccc2)C1=O)C(N)=O (stereo partly shown) [Example 4C]	0	0	0	23	65	cleaved quickly
NCC[C@H](NC(=O)Oc1ccc(C[C@H](N)C(=O)Nc2ccccc2)cc1)C(=O)N[C@@H](CSC1CC(=O)N(Cc2ccccc2)C1=O)C(N)=O (stereo partly shown) [Example 5C]	0	0	0	75	100	cleaved quickly
N[C@@H](CCNC(=O)Oc1ccc(C[C@H](N)C(=O)Nc2ccccc2)cc1)C(=O)NCCSC1CC(=O)N(Cc2ccccc2)C1=O (stereo partly shown) [Example 6C]	0	0	0	6	20	–
NC(=O)CNC(=O)[C@H](CSC1CC(=O)N(Cc2ccccc2)C1=O)NC(=O)[C@@H](N)CCNC(=O)Oc1ccc(C[C@H](N)C(=O)Nc2ccccc2)cc1 (stereo partly shown) [Example 7C]	0	0	0	6	23	–
NC(=O)[C@H](CSC1CC(=O)N(Cc2ccccc2)C1=O)NC(=O)CNC(=O)[C@@H](N)CCNC(=O)Oc1ccc(C[C@H](N)C(=O)Nc2ccccc2)cc1 (stereo partly shown) [Example 8C]	0	0	0	6	23	–
NC(=O)[C@H](CSC1CC(=O)N(Cc2ccccc2)C1=O)NC(=O)CCCCCNC(=O)[C@@H](N)CCNC(=O)Oc1ccc(C[C@H](N)C(=O)Nc2ccccc2)cc1 (stereo partly shown) [Example 9C]	0	0	0	7	25	–
N[C@@H](CCNC(=O)Oc1ccc(C[C@H](N)C(=O)Nc2ccccc2)cc1)C(=O)NCCOCCOCCOCCn1cc(-c2ccccc2)nn1 [Example 10Cb, O-{[(14S)-14-Amino-13-oxo-1-(4-phenyl-1H-1,2,3-triazol-1-yl)-3,6,9-trioxa-12-azahexadecan-16-yl]carbamoyl}-N-phenyl-L-tyrosinamide]	0	0	0	4	14	cleaved slowly
NC[C@H](NC(=O)Oc1ccc(C[C@H](N)C(=O)Nc2ccccc2)cc1)C(=O)N[C@@H](CSC1CC(=O)N(Cc2ccccc2)C1=O)C(N)=O (stereo partly shown) [Example 11C]	0	19	0	100	100	cleaved very quickly, even at pH4
N[C@@H](Cc1ccc(OC(=O)NCC[C@H](N)C(=O)N[C@@H](CSC2CC(=O)N(Cc3ccccc3)C2=O)C(=O)Nc2ccccc2)cc1)C(=O)Nc1ccccc1 (stereo partly shown) [Example 12C]	0	0	0	29	76	cleaved quickly
